What all share (assay): relative viability (nuclei count vs DMSO), 5 days (fraction); higher = more cells survive
Compound in the experiment “Vemurafenib + Alpelisib”: CCCS(=O)(=O)Nc1ccc(F)c(C(=O)c2c[nH]c3ncc(-c4ccc(Cl)cc4)cc23)c1F [Vemurafenib] + Cc1nc(NC(=O)N2CCC[C@H]2C(N)=O)sc1-c1ccnc(C(C)(C)C(F)(F)F)c1 [Alpelisib] (partner 2 µM)
An outline of the steps:
(§1)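 A single step with final 0.05% Triton X-100, 1% formaldehyde and 1 ug/ml Hoechst fixed the cells and stained nuclei 5 days after treatment. Lung cancer cell lines in 1536-well plates had been treated by pin tool the day after seeding with one drug alone or a fixed anchor-drug dose plus five library-drug doses (not always all listed) in √10 steps, and nuclei were counted on 4× images. Relative viability is the ratio of nuclei in treated wells to nuclei in vehicle wells, taken as the median of duplicate plates.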

Compound in the experiment “OSI-027 + Palbociclib”: COc1cccc2cc(-c3nc([C@H]4CC[C@H](C(=O)O)CC4)n4ncnc(N)c34)[nH]c12 [OSI-027] + CC(=O)c1c(C)c2cnc(Nc3ccc(N4CCNCC4)cn3)nc2n(C2CCCC2)c1=O [Palbociclib] (partner 0.5 µM)
The essentials:
as §1

Compound in the experiment “OSI-027 + Tozasertib”: COc1cccc2cc(-c3nc([C@H]4CC[C@H](C(=O)O)CC4)n4ncnc(N)c34)[nH]c12 [OSI-027] + Cc1cc(Nc2cc(N3CCN(C)CC3)nc(Sc3ccc(NC(=O)C4CC4)cc3)n2)n[nH]1 [Tozasertib] (partner 0.1 µM)
An outline of the steps:
as §1

Compound in the experiment “Alpelisib + Foretinib”: Cc1nc(NC(=O)N2CCC[C@H]2C(N)=O)sc1-c1ccnc(C(C)(C)C(F)(F)F)c1 [Alpelisib] + COc1cc2c(Oc3ccc(NC(=O)C4(C(=O)Nc5ccc(F)cc5)CC4)cc3F)ccnc2cc1OCCCN1CCOCC1 [Foretinib] (partner 0.25 µM)
The essentials: as §1

Take UMC-11: the relative viability with Vemurafenib + Alpelisib (first compound 0.03162 µM) was 0.954; with Vemurafenib + Alpelisib (first compound 0.1 µM) it was 0.947; with Vemurafenib + Alpelisib (first compound 0.3162 µM) it was 1.09; with Vemurafenib + Alpelisib (first compound 1 µM), 0.91; in the experiment with OSI-027 + Palbociclib (first compound 0.01 µM) it was 0.314; in the experiment with OSI-027 + Palbociclib (first compound 0.03162 µM) it was 0.371. Further, the relative viability in the experiment with OSI-027 + Palbociclib (first compound 0.1 µM) came out at 0.307; in the experiment with OSI-027 + Palbociclib (first compound 0.3162 µM), 0.301; in the experiment with OSI-027 + Palbociclib (first compound 1 µM), 0.314; with OSI-027 + Tozasertib (first compound 0.01 µM), 0.235; in the experiment with OSI-027 + Tozasertib (first compound 0.03162 µM), 0.208; with OSI-027 + Tozasertib (first compound 0.1 µM) it was 0.203. Moreover, the relative viability amounted to 0.204 with OSI-027 + Tozasertib (first compound 0.3162 µM); 0.2 with OSI-027 + Tozasertib (first compound 1 µM); 1.01 with Alpelisib + Foretinib (first compound 0.04 µM); 1.05 with Alpelisib + Foretinib (first compound 0.1265 µM); 1.12 with Alpelisib + Foretinib (first compound 0.4 µM); 0.839 in the experiment with Alpelisib + Foretinib (first compound 1.265 µM). Further, in the experiment with Alpelisib + Foretinib (first compound 4 µM), the relative viability stood at 0.875.

The values above are taken from the supplement of paper PMC10307832.
